According to ChEMBL document CHEMBL3885881, “DrugMatrix”:

Species on record: Rattus norvegicus
Experiment: DrugMatrix - Regimen: Daily Repeat
Format: toxicity, organism-based, Sprague-Dawley
Set-up: regimen Daily Repeat, gender Male, age 6-8 weeks
Details: in vivo, po, route oral GAVAGE, vehicle .5 % CMC; for ABSOLUTE BASOPHIL / ABSOLUTE EOSINOPHIL / ABSOLUTE LYMPHOCYTE / ABSOLUTE MONOCYTE / ABSOLUTE SEGMENTED NEUTROPHIL / BASOPHIL / EOSINOPHIL / ERYTHROCYTE COUNT / HEMATOCRIT / HEMOGLOBIN / LEUKOCYTE COUNT / LYMPHOCYTE / MEAN CORPUSCULAR HEMOGLOBIN / MEAN CORPUSCULAR HEMOGLOBIN CONCENTRATION / MEAN CORPUSCULAR VOLUME / MONOCYTE / NEUTROPHIL / NUCLEATED RED BLOOD CELLS / PLATELET COUNT: tissue Blood; for ALANINE AMINOTRANSFERASE / ALBUMIN / ALKALINE PHOSPHATASE / ASPARTATE AMINOTRANSFERASE / BLOOD UREA NITROGEN / CARBON DIOXIDE / CHLORIDE / CHOLESTEROL / CREATINE PHOSPHOKINASE / CREATININE / GLUCOSE / LACTATE DEHYDROGENASE / LIPASE / PHOSPHORUS / POTASSIUM / SODIUM / TOTAL BILIRUBIN / TOTAL PROTEIN / URIC ACID: tissue Plasma
[1] = 10 mg/kg, 120 h, dose level Low, time 5 day
[2] = 2500 mg/kg, 72 h, dose level High, time 3 day
[3] = 2500 mg/kg, 120 h, dose level High, time 5 day

Q: How did the “ABSOLUTE BASOPHIL” value [1] turn out when O=C1CN=C(c2ccccc2Cl)c2cc([N+](=O)[O-])ccc2N1 [CLONAZEPAM] was run?
A: 0 CELLS/uL

Q: And the “ABSOLUTE EOSINOPHIL” value [1]?
A: 31 CELLS/uL

Q: What about the “ABSOLUTE LYMPHOCYTE” value [1] of the same compound?
A: 8153 CELLS/uL

Q: And the “ABSOLUTE MONOCYTE” value [1]?
A: 62 CELLS/uL

Q: What about the “ABSOLUTE SEGMENTED NEUTROPHIL” value [1] of the same compound?
A: 620.67 CELLS/uL

Q: And the BASOPHIL [1]?
A: 0%

Q: And the EOSINOPHIL [1]?
A: 0.33%

Q: What about the “ERYTHROCYTE COUNT” value [1] of the same compound?
A: 5.74 x10E6/uL

Q: And the HEMATOCRIT [1]?
A: 35.3%

Q: What about the HEMOGLOBIN [1] of the same compound?
A: 13.87 G/DL

Q: What about the “LEUKOCYTE COUNT” value [1] of the same compound?
A: 8.87 x10E3/uL

Q: What about the LYMPHOCYTE [1] of the same compound?
A: 91.67%

Q: And the “MEAN CORPUSCULAR HEMOGLOBIN” value [1]?
A: 24.13 pg

Q: And the “MEAN CORPUSCULAR HEMOGLOBIN CONCENTRATION” value [1]?
A: 39.3 G/DL

Q: What about the “MEAN CORPUSCULAR VOLUME” value [1] of the same compound?
A: 61.43 fL

Q: And the MONOCYTE [1]?
A: 0.67%

Q: And the NEUTROPHIL [1]?
A: 7.33%

Q: And the “NUCLEATED RED BLOOD CELLS” value [1]?
A: 0 /100WBC

Q: What about the “PLATELET COUNT” value [1] of the same compound?
A: 1168 x10E3/uL

Q: And the “ALANINE AMINOTRANSFERASE” value [1]?
A: 54 u/L

Q: What about the ALBUMIN [1] of the same compound?
A: 4.33 G/DL

Q: What about the “ALKALINE PHOSPHATASE” value [1] of the same compound?
A: 274.67 u/L

Q: What about the “ASPARTATE AMINOTRANSFERASE” value [1] of the same compound?
A: 97 u/L

Q: And the “BLOOD UREA NITROGEN” value [1]?
A: 18.67 mg/dL

Q: What about the “CARBON DIOXIDE” value [1] of the same compound?
A: 25.67 mmol/L

Q: What about the CHLORIDE [1] of the same compound?
A: 98.67 MEQ/L

Q: And the CHOLESTEROL [1]?
A: 75.33 mg/dL

Q: And the “CREATINE PHOSPHOKINASE” value [1]?
A: 826.67 u/L

Q: What about the CREATININE [1] of the same compound?
A: 0.19 mg/dL

Q: What about the GLUCOSE [1] of the same compound?
A: 177.67 mg/dL

Q: What about the “LACTATE DEHYDROGENASE” value [1] of the same compound?
A: 201 u/L

Q: What about the LIPASE [1] of the same compound?
A: 10 u/L

Q: What about the PHOSPHORUS [1] of the same compound?
A: 11.6 mg/dL

Q: And the POTASSIUM [1]?
A: 5.92 MEQ/L

Q: What about the SODIUM [1] of the same compound?
A: 138.97 MEQ/L

Q: And the “TOTAL BILIRUBIN” value [1]?
A: 0.13 mg/dL

Q: And the “TOTAL PROTEIN” value [1]?
A: 6.07 G/DL

Q: And the “URIC ACID” value [1]?
A: 1.63 mg/dL

Q: What about the “ABSOLUTE BASOPHIL” value [2] of the same compound?
A: 0 CELLS/uL

Q: And the “ABSOLUTE EOSINOPHIL” value [2]?
A: 0 CELLS/uL

Q: What about the “ABSOLUTE LYMPHOCYTE” value [2] of the same compound?
A: 8925.67 CELLS/uL

Q: What about the “ABSOLUTE MONOCYTE” value [2] of the same compound?
A: 256 CELLS/uL

Q: What about the “ABSOLUTE SEGMENTED NEUTROPHIL” value [2] of the same compound?
A: 1951.67 CELLS/uL

Q: And the BASOPHIL [2]?
A: 0%

Q: And the EOSINOPHIL [2]?
A: 0%

Q: And the “ERYTHROCYTE COUNT” value [2]?
A: 5.85 x10E6/uL

Q: What about the HEMATOCRIT [2] of the same compound?
A: 36.6%

Q: What about the HEMOGLOBIN [2] of the same compound?
A: 14.27 G/DL

Q: And the “LEUKOCYTE COUNT” value [2]?
A: 11.13 x10E3/uL

Q: What about the LYMPHOCYTE [2] of the same compound?
A: 79%

Q: And the “MEAN CORPUSCULAR HEMOGLOBIN” value [2]?
A: 24.47 pg

Q: What about the “MEAN CORPUSCULAR HEMOGLOBIN CONCENTRATION” value [2] of the same compound?
A: 39.03 G/DL

Q: And the “MEAN CORPUSCULAR VOLUME” value [2]?
A: 62.67 fL

Q: What about the MONOCYTE [2] of the same compound?
A: 2.33%

Q: And the NEUTROPHIL [2]?
A: 18.67%

Q: And the “NUCLEATED RED BLOOD CELLS” value [2]?
A: 0.33 /100WBC

Q: And the “PLATELET COUNT” value [2]?
A: 1190 x10E3/uL

Q: What about the “ALANINE AMINOTRANSFERASE” value [2] of the same compound?
A: 88.33 u/L

Q: And the ALBUMIN [2]?
A: 3.97 G/DL

Q: What about the “ALKALINE PHOSPHATASE” value [2] of the same compound?
A: 322 u/L

Q: What about the “ASPARTATE AMINOTRANSFERASE” value [2] of the same compound?
A: 132 u/L

Q: What about the “BLOOD UREA NITROGEN” value [2] of the same compound?
A: 19.33 mg/dL

Q: And the “CARBON DIOXIDE” value [2]?
A: 31.33 mmol/L

Q: And the CHLORIDE [2]?
A: 100.33 MEQ/L

Q: And the CHOLESTEROL [2]?
A: 88.67 mg/dL

Q: What about the “CREATINE PHOSPHOKINASE” value [2] of the same compound?
A: 910.33 u/L

Q: What about the CREATININE [2] of the same compound?
A: 0.49 mg/dL

Q: And the GLUCOSE [2]?
A: 134.33 mg/dL

Q: What about the “LACTATE DEHYDROGENASE” value [2] of the same compound?
A: 213.67 u/L

Q: And the LIPASE [2]?
A: 11.33 u/L

Q: And the PHOSPHORUS [2]?
A: 13.77 mg/dL

Q: What about the POTASSIUM [2] of the same compound?
A: 6.47 MEQ/L

Q: What about the SODIUM [2] of the same compound?
A: 143.17 MEQ/L

Q: And the “TOTAL BILIRUBIN” value [2]?
A: 0.2 mg/dL

Q: What about the “TOTAL PROTEIN” value [2] of the same compound?
A: 5.7 G/DL

Q: What about the “URIC ACID” value [2] of the same compound?
A: 0.57 mg/dL

Q: What about the “ABSOLUTE BASOPHIL” value [3] of the same compound?
A: 0 CELLS/uL

Q: What about the “ABSOLUTE EOSINOPHIL” value [3] of the same compound?
A: 0 CELLS/uL

Q: What about the “ABSOLUTE LYMPHOCYTE” value [3] of the same compound?
A: 10757.67 CELLS/uL

Q: What about the “ABSOLUTE MONOCYTE” value [3] of the same compound?
A: 124 CELLS/uL

Q: What about the “ABSOLUTE SEGMENTED NEUTROPHIL” value [3] of the same compound?
A: 1618.33 CELLS/uL

Q: And the BASOPHIL [3]?
A: 0%

Q: What about the EOSINOPHIL [3] of the same compound?
A: 0%

Q: What about the “ERYTHROCYTE COUNT” value [3] of the same compound?
A: 5.66 x10E6/uL

Q: What about the HEMATOCRIT [3] of the same compound?
A: 34.97%

Q: And the HEMOGLOBIN [3]?
A: 14.27 G/DL

Q: And the “LEUKOCYTE COUNT” value [3]?
A: 12.5 x10E3/uL

Q: And the LYMPHOCYTE [3]?
A: 85.67%

Q: And the “MEAN CORPUSCULAR HEMOGLOBIN” value [3]?
A: 25.23 pg

Q: And the “MEAN CORPUSCULAR HEMOGLOBIN CONCENTRATION” value [3]?
A: 40.83 G/DL

Q: What about the “MEAN CORPUSCULAR VOLUME” value [3] of the same compound?
A: 61.8 fL

Q: What about the MONOCYTE [3] of the same compound?
A: 1%

Q: And the NEUTROPHIL [3]?
A: 13.33%

Q: And the “NUCLEATED RED BLOOD CELLS” value [3]?
A: 0 /100WBC

Q: What about the “PLATELET COUNT” value [3] of the same compound?
A: 964.33 x10E3/uL

Q: What about the “ALANINE AMINOTRANSFERASE” value [3] of the same compound?
A: 84 u/L

Q: What about the ALBUMIN [3] of the same compound?
A: 3.93 G/DL

Q: What about the “ALKALINE PHOSPHATASE” value [3] of the same compound?
A: 331.67 u/L

Q: And the “ASPARTATE AMINOTRANSFERASE” value [3]?
A: 114 u/L

Q: What about the “BLOOD UREA NITROGEN” value [3] of the same compound?
A: 19 mg/dL

Q: And the “CARBON DIOXIDE” value [3]?
A: 27 mmol/L

Q: And the CHLORIDE [3]?
A: 102.33 MEQ/L

Q: And the CHOLESTEROL [3]?
A: 93 mg/dL

Q: And the “CREATINE PHOSPHOKINASE” value [3]?
A: 261 u/L

Q: What about the CREATININE [3] of the same compound?
A: 0.2 mg/dL

Q: What about the GLUCOSE [3] of the same compound?
A: 136.67 mg/dL

Q: What about the “LACTATE DEHYDROGENASE” value [3] of the same compound?
A: 217.67 u/L

Q: And the LIPASE [3]?
A: 10.33 u/L

Q: What about the PHOSPHORUS [3] of the same compound?
A: 9.8 mg/dL

Q: And the POTASSIUM [3]?
A: 5.43 MEQ/L

Q: What about the SODIUM [3] of the same compound?
A: 142.37 MEQ/L

Q: What about the “TOTAL BILIRUBIN” value [3] of the same compound?
A: 0.2 mg/dL

Q: What about the “TOTAL PROTEIN” value [3] of the same compound?
A: 5.73 G/DL

Q: What about the “URIC ACID” value [3] of the same compound?
A: 1.13 mg/dL
